One block for each compound: values may come before it.
Key:
[1] = tested on: green peach aphid (Myzus persicaei); experiment: Myzus persicae test (MYZUPE) with ammonium salts and/or penetrants; type: in vivo; settings: for % efficacy after 6 days +AMS: +AMS (ammonium sulphate) 1000 ppm; for % efficacy after 6 days +RME: +RME (rapeseed oil methyl ester) 1000 ppm; for % efficacy after 6 days +RME + AMS: each 1000 ppm
Experimental: Myzus persicae Test (MYZUPE)
Solvent: 7 parts by weight of dimethylformamide
(§1) Emulsifier: 2 parts by weight of alkylaryl polyglycol ether
(§2) To produce a suitable preparation of active compound, 1 part by weight of active compound is mixed with the stated amounts of solvents and emulsifier, and the concentrate is diluted with emulsifier-containing water to the desired concentration. For the required application of ammonium salts, penetrants or ammonium salts and penetrants, these are in each case added with a pipette after dilution of the respective finished solution of the preparation at a concentration of 1000 ppm.
Paprika plants (Capsicum annuum) which are heavily infested by the green peach aphid (Myzus persicaei) are treated by being sprayed with the preparation of active compound of the desired concentration.
After the desired period of time, the kill in % is determined. 100% means that all animals have been killed; 0% means that none of the animals have been killed.

[2] = tested on: cotton aphid (Aphis gossypii); experiment: Aphis gossypii test (APHIGO) with ammonium salts and/or penetrants; type: in vivo; settings: for % efficacy after 6 days +AMS: +AMS (ammonium sulphate) 1000 ppm; for % efficacy after 6 days +RME: +RME (rapeseed oil methyl ester) 1000 ppm; for % efficacy after 6 days +RME + AMS: each 1000 ppm
Experimental: Aphis gossypii Test (APHIGO)
Solvents: 7 parts by weight of dimethylformamide
as §1, §2
Cotton leaves (Gossypium hirsutum) which are heavily infested by the cotton aphid (Aphis gossypii) are sprayed with an active compound preparation of the desired concentration.
After the desired period of time, the kill in % is determined. 100% means that all aphids have been killed; 0% means that none of the aphids have been killed.

Summer wheat = experiment: Herbicidal post-emergence action with use of safeners, container trials with cereal in a greenhouse; type: in vivo; settings: 28 days after application
Experimental: (§3) 1. Herbicidal Post-Emergence Action • Seeds of monocotyledonous and dicotyledonous weed and crop plants are placed in sandy loam in wood fibre pots or in plastic pots, covered with soil and cultivated in a greenhouse, during the vegetation period also outdoors outside of the greenhouse, under good growth conditions. 2 to 3 weeks after sowing, the test plants are treated at one- to three-leaf stage. The test compounds, formulated as wettable powders (WP) or liquid (EC) are, at a water application rate of 300 l/ha (converted), with wetting agent (0.2 to 0.3%) added, sprayed at various dosages onto the plants and the surface of the soil. 3 to 4 weeks after treatment of the test plants, the effect of the preparations is rated visually in comparison to untreated controls (herbicidal activity in percent: 100% activity=the plants have died, 0% activity=like control plants).
(§4) Use of Safeners: • If it is additionally to be tested as to whether safeners can improve the plant compatibility of test substances in the case of crop plants, the following options are used for applying the safeners: • seeds of the crop plants are, before sowing, dressed with the safener substance (the amount of safener stated in percent, based on the weight of the seed) • before application of the test substances, the crop plants are sprayed with the safener at a certain application rate per hectare (usually 1 day before the application of the test substances) • the safener is applied together with the test substance as a tank mix (the amount of safener stated in g/ha or as a ratio, based on the herbicide). • Container trials with cereal in a greenhouse • mefenpyr 1 day prior to herbicide application

cereal = experiment: Herbicidal post-emergence action with use of safeners, container trials with cereal in a greenhouse (other cereal crop plants); type: in vivo; settings: 10 days after application
Experimental: as §3, §4

[3] = Determination of the logP values by HPLC on a reverse-phase column (C 18); type: physicochemical; settings: for log P*: compounds of formula (I-2-b)
Experimental: Determination of the logP Values
The logP values given in the table were determined in accordance with EEC Directive 79/831 Annex V.A8 by HPLC (high performance liquid chromatography) on a reverse-phase column (C 18). Temperature: 55° C.
Mobile phases for the determination in the acidic range (pH 3.4):
Mobile phase A: acetonitrile+1 ml of formic acid/liter. Mobile phase B: water+0.9 ml of formic acid/liter.
Gradient: from 10% mobile phase A/90% mobile phase B to 95% mobile phase A/5% mobile phase B over 4.25 min.
Calibration was carried out using unbranched alkan-2-ones (having 3 to 16 carbon atoms) with known logP values (determination of the logP values by the retention times using linear interpolation between two successive alkanones). The lambda max values were determined in the maxima of the chromatographic signals using the UV spectra from 200 nm to 400 nm.

[4] = HPLC, reverse-phase C 18, acidic range (pH 3.4), 55° C.

SMILES: Cc1cc(C)c(C2=C(O)C3(CCC4(CCCO4)CC3)NC2=O)c(C)c1 (mixture of isomers) [Example I-1-a-4]
% efficacy after 6 days +AMS ([1]; 0.8 ppm): 0%
% efficacy after 6 days +RME ([1]; 0.8 ppm): 60%
% efficacy after 6 days +RME + AMS ([1]; 0.8 ppm): 99%
% efficacy after 6 days without additive ([1]; 0.8 ppm): 10%
% efficacy after 6 days +AMS ([1]; 4 ppm): 80%
% efficacy after 6 days +RME ([1]; 4 ppm): 90%
% efficacy after 6 days +RME + AMS ([1]; 4 ppm): 98%
% efficacy after 6 days without additive ([1]; 4 ppm): 75%
% efficacy after 6 days +AMS ([2]; 0.8 ppm): 0%
% efficacy after 6 days +RME ([2]; 0.8 ppm): 15%
% efficacy after 6 days +RME + AMS ([2]; 0.8 ppm): 45%
% efficacy after 6 days without additive ([2]; 0.8 ppm): 10%
% efficacy after 6 days +AMS ([2]; 4 ppm): 75%
% efficacy after 6 days +RME ([2]; 4 ppm): 75%
% efficacy after 6 days +RME + AMS ([2]; 4 ppm): 80%
% efficacy after 6 days without additive ([2]; 4 ppm): 60%

SMILES: Cc1cc(Cl)cc(C)c1C1=C(O)C2(CCC3(CCCO3)CC2)NC1=O (mixture of isomers) [Example I-1-a-6]
% efficacy after 6 days +AMS ([2]; 20 ppm): 5%
% efficacy after 6 days +RME ([2]; 20 ppm): 60%
% efficacy after 6 days +RME + AMS ([2]; 20 ppm): 95%
% efficacy after 6 days without additive ([2]; 20 ppm): 35%

SMILES: Cc1cc(Br)cc(C)c1C1=C(O)C2(CCC3(CCCO3)CC2)NC1=O (mixture of isomers) [Example I-1-a-8]
% efficacy after 6 days +AMS ([1]; 0.8 ppm): 0%
% efficacy after 6 days +RME ([1]; 0.8 ppm): 20%
% efficacy after 6 days +RME + AMS ([1]; 0.8 ppm): 99%
% efficacy after 6 days without additive ([1]; 0.8 ppm): 0%
% efficacy after 6 days +AMS ([1]; 4 ppm): 98%
% efficacy after 6 days +RME ([1]; 4 ppm): 99%
% efficacy after 6 days +RME + AMS ([1]; 4 ppm): 100%
% efficacy after 6 days without additive ([1]; 4 ppm): 45%

SMILES: CCc1cc(Cl)cc(OC)c1C1=C(O)C2(CCC3(CCCO3)CC2)NC1=O (mixture of isomers) [Example I-1-a-11]
Summer wheat observed (%) (Summer wheat; 12.5 g of a.i./ha): 65%
Summer wheat observed (%) (Summer wheat; 25 g of a.i./ha): 70%
Summer wheat observed (%) (Summer wheat; 50 g of a.i./ha): 80%
Summer wheat observed (%) (Summer wheat; 100 g of a.i./ha): 95%

SMILES: COc1cc(C)cc(Cl)c1C1=C(O)C2(CCC3(CCCO3)CC2)NC1=O (mixture of isomers) [Example I-1-a-13]
Summer barley observed (%) (cereal; 12.5 g of a.i./ha): 20%
Summer barley observed (%) (cereal; 25 g of a.i./ha): 20%
Summer barley observed (%) (cereal; 50 g of a.i./ha): 30%

log P* [3]: 5.38
SMILES: Cc1ccc(-c2ccc(F)cc2)cc1C1=C(OC(=O)C(C)C)C2(CCC3(CCCO3)CC2)OC1=O (stereo not drawn) [Example I-2-b-10]

log P* [3]: 5.26
SMILES: CC(C)C(=O)OC1=C(c2cc(-c3ccc(Cl)cc3)ccc2Cl)C(=O)OC12CCC1(CCCO1)CC2 (stereo not drawn) [Example I-2-b-12]

log P* [3]: 5.29
SMILES: Cc1ccc(-c2ccc(Cl)cc2)cc1C1=C(OC(=O)C(C)C)C2(CCC3(CCCO3)CC2)OC1=O (stereo not drawn) [Example I-2-b-13]

log P* [3]: 4.96
SMILES: Cc1cc(C)c(C2=C(OC(=O)C(C)(C)C)C3(CCC4(CCCO4)CC3)OC2=O)c(C)c1 (stereo not drawn) [Example I-2-b-14]

log P* [3]: 5.63
SMILES: Cc1ccc(-c2ccc(Cl)cc2)c(C)c1C1=C(OC(=O)C(C)C)C2(CCC3(CCCO3)CC2)OC1=O (stereo not drawn) [Example I-2-b-15]

log P* [3]: 6.09
SMILES: Cc1ccc(-c2ccc(Cl)cc2)c(C)c1C1=C(OC(=O)C(C)(C)C)C2(CCC3(CCCO3)CC2)OC1=O (stereo not drawn) [Example I-2-b-16]

log P* [3]: 5.58
SMILES: Cc1cc(C)c(C2=C(OC(=O)C(C)(C)C)C3(CCC4(CCCO4)CC3)OC2=O)c(C)c1 (stereo not drawn) [Example I-2-b-17]

log P* [3]: 3.75
SMILES: COc1cccc(C)c1C1=C(OC(=O)C(C)C)C2(CCC3(CCCO3)CC2)OC1=O (stereo not drawn) [Example I-2-b-18]

log P* [3]: 4.16
SMILES: COc1cccc(C)c1C1=C(OC(=O)C(C)(C)C)C2(CCC3(CCCO3)CC2)OC1=O (stereo not drawn) [Example I-2-b-19]

log P* [3]: 4.25
SMILES: COc1cccc(C)c1C1=C(OC(=O)C(C)C)C2(CCC3(CCCO3)CC2)OC1=O (stereo not drawn) [Example I-2-b-20]

log P* [3]: 4.50
SMILES: COc1cc(C)cc(C)c1C1=C(OC(=O)C(C)(C)C)C2(CCC3(CCCO3)CC2)OC1=O (stereo not drawn) [Example I-2-b-21]

log P* [3]: 5.17
SMILES: CCc1cc(C)cc(CC)c1C1=C(OC(=O)C(C)C)C2(CCC3(CCCO3)CC2)OC1=O (stereo not drawn) [Example I-2-b-22]

log P* [3]: 5.62
SMILES: CCc1cc(C)cc(CC)c1C1=C(OC(=O)C(C)(C)C)C2(CCC3(CCCO3)CC2)OC1=O (stereo not drawn) [Example I-2-b-23]

log P* [3]: 5.79
SMILES: CCc1cc(C)cc(CC)c1C1=C(OC(=O)C(C)C)C2(CCC3(CCCO3)CC2)OC1=O (stereo not drawn) [Example I-2-b-24]

log P* [3]: 6.25
SMILES: CCc1cc(C)cc(CC)c1C1=C(OC(=O)C(C)(C)C)C2(CCC3(CCCO3)CC2)OC1=O (stereo not drawn) [Example I-2-b-25]

chromatographic logP ([3]; reverse-phase HPLC column (C 18), HPLC, reverse-phase C 18, acidic range (pH 3.4), 55° C., read-out: log P): 4.09
SMILES: CCOC(=O)OC1=C(c2c(C)cc(C)cc2C)C(=O)O[C@]12CC[C@]1(CCCO1)CC2 [Example I-2-c-1]

log P [3, 4]: 4.69
SMILES: CCOC(=O)OC1=C(c2c(C)cc(C)cc2C)C(=O)OC12CCC1(CCCO1)CC2 (stereo not drawn) [Example I-2-c-2]

log P [3, 4]: 4.68
SMILES: CCOC(=O)OC1=C(c2c(CC)cc(C)cc2CC)C(=O)OC12CCC1(CCCO1)CC2 (stereo not drawn) [Example I-2-c-3]

log P [3, 4]: 5.28
SMILES: CCOC(=O)OC1=C(c2c(CC)cc(C)cc2CC)C(=O)OC12CCC1(CCCO1)CC2 (stereo not drawn) [Example I-2-c-4]

From patent publication US8859466B2, “Oxaspirocyclic spiro-substituted tetramic acid and tetronic acid derivatives” (Bayer CropScience AG, priority 2007, dated 2014)
